# Test results as given in patent US5843481A, “Treatment of proliferative disorders, metastasaes, and drug resistant tumors with vanadate compounds and derivatives or analogues thereof” (priority 1994, dated 1998).
# Entries after “also recorded” stand apart in the source; their conditions may differ.
# What was measured:
# [1] = system: carcinogenesis; conditions: reported by G. Shklar et al.; cited from earlier work
# [2] = system: fos; assay: Northern blot analysis of fos mRNA expression in chondrocytes; assay type: cell-based, bovine; conditions: for expression of c-fos: stimulation, 1 hour, bovine chondrocytes, AA 3 μM; for fos expression in response to factors such as IL 1 or arachidonic acid: summary statement
# Method: (§1) The cytokine interleukin 1 (IL 1) has been used to identify the intermediate second messengers which regulate the expression of fos and jun.
# In order to elucidate this possibility, the effect of DPI on fos and jun mRNA levels induced by IL 1 was investigated. RNA from chondrocytes treated with IL 1 in the presence and absence of DPI were analyzed by Northern blot analysis using either fos or collagenase cDNA probes.
# Since superoxides are rapidly converted to hydrogen peroxide in the cell by superoxide dismutase, whether hydrogen peroxide could mimic the effect of IL 1 in the induction of fos expression was investigated. RNA was extracted from chondrocytes (Kandel et al. supra) treated with H2 O2 for 30, 60 and 90 minutes and examined by Northern blot analysis using a fos cDNA probe.
# (§2) Bovine articular chondrocytes were isolated and plated as previously described (Kandel R. A. et al. Biochim. Biophys. Acta. 1053, 130-134, 1990). In order to determine the effect of orthovanadate on IL 1 and PMA (phorbol ester) induced responses, chondrocytes were incubated with orthovanadate (100 μM) for 2 hours before stimulation with IL 1 (10 ng/ml) or PMA ([…]). collagenase production was determined by incubating chondrocytes for 24 hours with IL 1 or PMA and the cell conditioned medium was assayed for collagenase activity using an ELISA procedure as described previously (Kandel et al. supra) PLA2 activity was measured by incorporating ^3 H-arachidonic acid (^3 H-AA) into the cells and then incubating the cells with medium containing 1 mg/ml BSA, either alone or in the presence of IL 1 or PMA, for 10 min. as previously described (Conquer, J. A. […], Biochim. Biophys. Acta. 1134, 1-6). The amount of ^3 H-AA liberated into the supernatant was determined. To measure PGE2 production, chondrocytes were incubated for 6 hours in Ham's F12 medium, either alone or with IL 1 or PMA. The supernatant was analyzed by RIA using an antibody specific for PGE2 (Dr. S. A. Jones, Mount Sinai Hospital, Toronto, Can.). In order to examine the expression of c-fos and c-jun, chondrocytes were incubated for 1 hour in the presence of IL-1, PMA or AA (3 μM). Chondrocytes were washed in PBS and the total RNA extracted as previously described (Cruz. et al, 1991, Biochem. J. 277, 327-330). RNA samples were run on formaldehyde agarose gels and transferred to nylon membrane for northern analysis using cDNA probes for c-fos and c-jun.
# Cells were also incubated as described above with 20 mM N-acetylcyateine for 20 min. and then incubated with IL 1 for an additional 1 or 12 hours. The RNA was extracted and examined by Northern blot analysis using cDNA probes for c-fos and collagenase.
# [3] = system: jun; assay: Northern blot analysis of jun mRNA expression in chondrocytes; assay type: cell-based, bovine; conditions: for expression of c-jun: stimulation, 1 hour, bovine chondrocytes, AA 3 μM; for jun expression in response to factors such as IL 1 or arachidonic acid: summary statement
# Excerpt: as §1
# (§3) Although IL 1 stimulated superoxide production, it was not known whether IL 1 induced fos and jun expression was dependent on the production of superoxides. In order to elucidate this possibility, the effect of DPI on fos and jun mRNA levels induced by IL 1 was investigated. RNA from chondrocytes treated with IL 1 in the presence and absence of DPI were analyzed by Northern blot analysis using either fos or collagenase cDNA probes. […] Similar data has been obtained for IL 1 induced jun expression. Furthermore, inhibition of fos and jun expression by DPI was sufficient to suppress IL 1 induced and constitutive collagenase expression.
# as §2
# [4] = system: collagenase; assay: Northern blot analysis of collagenase mRNA expression in chondrocytes; assay type: cell-based, bovine
# Excerpt: as §1, §3
# Cells were also incubated as described above with 20 mM N-acetylcyateine for 20 min. and then incubated with IL 1 for an additional 1 or 12 hours. The RNA was extracted and examined by Northern blot analysis using cDNA probes for c-fos and collagenase. N-acetylcysteine which is converted to GSH intracellularly was also found to reduce the levels of fos and collagenase expression in response to IL 1 (FIG. 5). Presumably the higher intracellular levels of GSH reduced H2 O2 and superoxide levels and suppressed the induction of fos and collagenase expression.
# [5] = system: superoxides and H2O2; assay: Levels of superoxides and H2O2 in cells (conclusion of Example 1); assay type: cell-based, bovine; conditions: conclusion from results
# Method: as §2, with “Chondrocytes were washed in PBS and the total RNA extracted as previously described (Cruz. et al, 1991, Biochem. J. 277, 327-330). RNA samples were run on formaldehyde agarose gels and transferred to nylon membrane for northern analysis using cDNA probes for c-fos and c-jun.” left out
# [6] = system: MDAY-D2; assay: MDAY-D2 tumor growth in mice, combination therapy, Example 7; assay type: in vivo
# Method: Twenty mice were injected subcutaneously with 2×10^5 cells on Day 1. At day 4, the mice were divided into four groups of five mice. Group one (control) received subcutaneous injections of 50 μl of water. Group two received daily intraperitoneal injections of 50 μl of 250 mM N-acetylcysteine. Group three received daily subcutaneous injections of 50 μl of 10 mg/ml of orthovanadate. Group four received daily intraperitoneal injections of 50 μl of […] N-acetylcysteine and 20 minutes later received 50 μl of subcutaneous injection of 50 μl of 10 mg/ml of orthovanadate. On day 10 the treatment was stopped. The animals were sacrificed on Day 13 and analyzed for tumor growth.
# [7] = system: MDAY-D2; assay: MDAY-D2 tumor growth in mice, three vanadyl compounds, Example 6B; assay type: in vivo; conditions: for effect on tumor growth, in words: 10 mg/ml s.c. daily; for animals that died: 10 mg/ml, 50 μl s.c. daily for 16 days, groups of five mice
# Excerpt: (§4) In order to examine the ability of vanadyl compounds to reduce tumor formation, growth and metastases, a specific animal model which allows investigation of all of these processes in the same animal was chosen. This model involves the injection of a metastatic haematopoietic cell line, MDAY-D2, into mice subcutaneously. These cells form a tumor at the site of injection and its size can be easily determined. In addition, these cells metastasize to the liver and metastases can be detected histologically after day 17 to 19. This model provides a very sensitive and reproducible approach to investigate the effect of vanadyl compounds on tumor growth and metastases.
# In a separate experiment using the same animal model, the effect of orthovanadate, vanadyl sulphate and vanadyl hydroperoxide administration on tumor growth in vivo was examined. On Day 1, 20 mice were injected with 2×10^5 MDAY-D2 cell subcutaneously. The mice were divided into four groups of five mice. At day 5, the animals were injected subcutaneously with 50 μl of water alone or containing 10 mg/ml of orthovanadate, 10 mg/ml of vanadyl sulphate, or 10 mg/ml of vanadyl hydroperoxide. This treatment was continued daily for 16 days. At day 21, the mice were sacrificed and the tumors dissected and weighed.
# [8] = system: MDAY-D2 cells; assay: Viability of MDAY-D2 cells with different vanadyl compounds; assay type: cell-based, mouse; conditions: 0-50 μM, 48 hours; FIG. 8
# Method: Three different forms of vanadyl compounds were examined for their effect on viability of cancer cell lines. MDAY-D2 cells were incubated in media containing 0-50 μM orthovanadate, vanadyl sulphate, or vanadyl hydroperoxide for 48 hours. The cells were harvested and the number of viable cells determined. […] Although there were slight differences in sensitivity, the overall cell death was similar.
# [9] = system: MDAY-D2; assay: Liver metastases of MDAY-D2 cells in mice (histology), Example 8; assay type: in vivo
# Excerpt: as §4
# Livers were removed from animals treated as described above and prepared for histological examination. FIG. 16 compares liver sections from untreated (C), orthovanadate (VO)(500 μg/day) and vanadyl sulphate (VS)(500 μg/day) treated animals. Nodules are identified with an arrow.
# [10] = system: mammary carcinogenesis; conditions: dietary; cited from earlier work
# [11] = system: KB8, KB8-5 and KB85-11 cells; conditions: background statement; cited from earlier work
# [12] = system: Chondrocytes (reactive oxygen intermediates; NADPH oxidase); assay: FACS analysis of reactive oxygen intermediates/superoxide production in chondrocytes (dihydroxyrhodamine); assay type: cell-based, bovine; conditions: inhibition, FIG. 1
# Method: Chondrocytes (i.e. bovine chondrocytes plated as described in Kandel R. A. et al. Biochim. Biophys. Acta. 1053, 130-134, 1990) were incubated with dihydroxyrhodamine for 5 min (DHR) or for 4 hours in the absence (-IL 1 ) or presence of IL 1 (+IL 1), or in the presence of both IL 1 and the NADPH inhibitor, diphenyl iodonium, (+IL 1, +DPI).
# [13] = system: PLA2; assay: 3H-arachidonic acid release by chondrocytes (PLA2 activity); assay type: cell-based, bovine; conditions: stimulation, IL 1 10 ng/ml or PMA 100 mg/ml, 10 min
# Method: as §2, with “Chondrocytes were washed in PBS and the total RNA extracted as previously described (Cruz. et al, 1991, Biochem. J. 277, 327-330). RNA samples were run on formaldehyde agarose gels and transferred to nylon membrane for northern analysis using cDNA probes for c-fos and c-jun.” left out
# [14] = system: collagenase; assay: Collagenase production by chondrocytes (ELISA of conditioned medium); assay type: cell-based, bovine; conditions: stimulation, 24 hours, monolayer culture
# Method: as §2, with “Chondrocytes were washed in PBS and the total RNA extracted as previously described (Cruz. et al, 1991, Biochem. J. 277, 327-330). RNA samples were run on formaldehyde agarose gels and transferred to nylon membrane for northern analysis using cDNA probes for c-fos and c-jun.” left out
# [15] = system: PGE2; assay: PGE2 production by chondrocytes (RIA); assay type: cell-based, bovine; conditions: stimulation, 6 hours, monolayer culture
# Method: as §2, with “Chondrocytes were washed in PBS and the total RNA extracted as previously described (Cruz. et al, 1991, Biochem. J. 277, 327-330). RNA samples were run on formaldehyde agarose gels and transferred to nylon membrane for northern analysis using cDNA probes for c-fos and c-jun.” left out
# [16] = system: cells; assay: Combined effect of H2O2 and orthovanadate on cell toxicity; assay type: cell-based; conditions: 1 mM H2O2, 24 hours; FIG. 9
# Method: If the orthovanadate induced formation of hydroxyl radicals is responsible for cell toxicity, then adding exogenous H2 O2 should enhance the effects of orthovanadate. Accordingly, cells were incubated in media alone or containing 1 mM H2 O2 or 10 μM orthovanadate or both for 24 hours. The cells were harvested and cell viability determined.
# [17] = 20 mM N-acetylcysteine for 20 min, FIG. 5
compound,measurement,setting,value
vitamin E,anticancer activity,[1],reported to have anticancer activity
"CCCCC/C=C\C/C=C\C/C=C\C/C=C\CCCC(=O)O [AA, arachidonic acid]",expression of c-fos,[2],stimulated
same,expression of c-jun,[3],stimulated
CC(=O)N[C@@H](CS)C(=O)O [N-acetylcysteine],levels of fos expression in response to IL 1,[2]; [17],reduce
same,fos expression in response to factors such as IL 1 or arachidonic acid,[2],completely inhibit
same,levels of collagenase expression in response to IL 1,[4]; [17],reduce
same,levels of superoxides and H2O2 in cells,[5],indirectly reduce
same,effect on slight toxic effects observed with orthovanadate alone,[6]; N-acetylcysteine co-administered,appeared to reduce the slight toxic effects
same,"tumor growth inhibition in vivo, in words",[6]; combination therapy,capable of reducing tumor growth to some extent
same,jun expression in response to factors such as IL 1 or arachidonic acid,[3],completely inhibit
Cc1c(C)c2c(c(C)c1O)CCC(C)(CCCC(C)CCCC(C)CCCC(C)C)O2 (stereo not drawn) [α-tocopherol],anticancer activity,[1],reported to have anticancer activity
O=S(=O)([O-])[O-].[O]=[V+2] [vanadyl sulphate],"effect on tumor growth, in words",[7],reduced tumors size in all of the animals; also recorded: less effective
same,animals that died,[7],One animal died
same,effectiveness in killing MDAY-D2 cells,[8],equally effective
same,levels of metastases in liver,"[9]; 500 μg/day, FIG. 16",did not have detectable levels of metastases
same,effectiveness at preventing metastases,"[9]; preliminary results, liver histology",effective at preventing metastases
same,inhibition of chemically induced mammary carcinogenesis,[10],inhibit
CC[C@]1(O)C[C@@H]2CN(CCc3c([nH]c4ccccc34)[C@@](C(=O)OC)(c3cc4c(cc3OC)N(C)[C@H]3[C@@](O)(C(=O)OC)[C@H](OC(C)=O)[C@]5(CC)C=CCN6CC[C@]43[C@@H]65)C2)C1 [vinblastine],killing of drug resistant cell lines by conventional chemotherapeutic agents,[11],not killed
CC1=C(/C=C/C(C)=C/C=C/C(C)=C/C=C/C=C(C)/C=C/C=C(C)/C=C/C2=C(C)CCCC2(C)C)C(C)(C)CCC1 [β-carotene],anticancer activity,[1],reported to have anticancer activity
COc1cc2c(c(OC)c1OC)-c1ccc(OC)c(=O)cc1[C@@H](NC(C)=O)CC2 [colchicine],killing of drug resistant cell lines by conventional chemotherapeutic agents,[11],not killed
"c1ccc([I+]c2ccccc2)cc1 [diphenyl iodonium (DPI), diphenyl iodonium]",IL 1 induction of fos,"[2]; Northern blot, FIG. 2",suppressed
same,fos expression in response to factors such as IL 1 or arachidonic acid,[2],completely inhibit
same,IL 1 induced and constitutive collagenase expression,"[4]; Northern blot, FIG. 2",suppress
same,constitutive and IL 1 induced reactive oxygen intermediates,[12],completely inhibits
same,jun expression in response to factors such as IL 1 or arachidonic acid,[3],completely inhibit
COc1cccc2c1C(=O)c1c(O)c3c(c(O)c1C2=O)C[C@@](O)(C(=O)CO)C[C@@H]3O[C@H]1C[C@H](N)[C@H](O)[C@H](C)O1 [doxorubicin],killing of drug resistant cell lines by conventional chemotherapeutic agents,[11],not killed
"O=C1O[C@H]([C@@H](O)CO)C(O)=C1O [vitamin C, ascorbic acid]",anticancer activity,[1],reported to have anticancer activity
"CCCCCCCCCCCCCC(=O)OC1C(C)C2(O)C(C=C(CO)CC3(O)C(=O)C(C)=CC32)C2C(C)(C)C12OC(C)=O (centres unmarked) [PMA, reference compound]",expression of c-fos,[2],stimulated
same,release of 3H-AA,[13],induced
same,production of collagenase,[14],induced
same,expression of c-jun,[3],stimulated
same,production of PGE2,[15],induced
"OO [H2 O2, hydrogen peroxide]",stimulation of fos expression,"[2]; H2O2 for 30, 60 and 90 minutes, FIG. 3",stimulates
same,cell toxicity of H2O2 alone,[16],small effect
N[C@@H](CCC(=O)N[C@@H](CS)C(=O)NCC(=O)O)C(=O)O [glutathione],anticancer activity,[1],reported to have anticancer activity
vanadyl hydroperoxide,"effect on tumor growth, in words",[7],too toxic to evaluate its efficacy
same,animals that died,[7],all five died
same,effectiveness in killing MDAY-D2 cells,[8],equally effective
